Experimental data taken from paper PMC7002685, “Inhibition of vascular calcification by inositol phosphates derivatized with ethylene glycol oligomers” (Nature Communications, 2020).
Where “and” joins values, the source holds several entries; their conditions need not be identical. Equal entries are not always repeated. Where two headings read alike, the source gives them in different places.

Tests used:
CPPs = experiment: DLS of CPP hydrodynamic diameter in human serum; set-up: Dh: unit not given here
Protocol: To confirm the screening assay data, the hydrodynamic diameter of the CPPs was measured by dynamic light scattering (DLS).
Human serum studies were performed under sterile conditions at 37 °C as described previously. […] For serum background measurements, saline, human serum, and 100 mM HBS (pH 7.4 (RT)) were combined in a volume ratio of 2:8:10. […] The mixtures were incubated with continual slow mixing on a rotator (240 rotations/min, IKA KS 130 Basics Orbital Shaker) at 37 °C. After 1, 3, and 5 h of incubation, 500 µL aliquots were drawn under sterile conditions to prevent microorganism growth contamination and subjected to DLS analysis at 37 °C. For each experiment, three replicates were produced and a single measurement per sample and time point was performed.

primary human VSMCs = experiment: High-CaP medium-induced VSMC calcification; format: cell-based; conditions: for VSMC calcium deposition, % of high-CaP control: high-CaP medium, 5 days
Protocol: Incubation of VSMCs in high-CaP medium induced cell monolayer calcification after 5 days (Fig. 3b). […] The effect became significant from 0.1 µM (OEG2)2-IP4 on, where a 54% reduction in calcification was observed compared to untreated high-CaP medium-exposed cells.
Primary human VSMCs (C-12533, PromoCell, Heidelberg, Germany) were cultured according to the manufacturer's guidelines in SMC-2 culture medium (C-22062, PromoCell) and used up to passage 7. For calcification experiments cells were seeded onto 24-well plates (TPP) at a density of 20,000 cells/well and left to attach for 48–72 h. Complete medium was M199 medium (31150022, Thermo Fischer Scientific), supplemented with 10% v/v FBS (10270106, Thermo Fisher Scientific, Waltham, MA), 1% v/v penicillin/streptomycin (15140122, Thermo Fisher Scientific), and 4 mM L-glutamine (25030024, Thermo Fisher Scientific)[80]. Calcification of cell monolayers was induced as described previously[81] by treatment with CPP2-supplemented (50 µg Ca/mL) medium with or without test compounds (1, 3, 10, 30, and 100 µM) at a volume of 1 mL/well for 48 h at 37 °C, 5% CO2. In a second assay, calcification was induced similar to previous experiments[56] by cell treatment with or without test compounds (0.01, 0.1, 1, 10, and 100 µM) in complete medium supplemented with calcium (2.7 mM) and phosphate (2.5 mM) (CaP medium) at a volume of 1 mL/well for 5 days, and treatment medium was replaced on alternate days.
Calcium deposition on cell monolayers was assessed qualitatively by staining for calcium with 2% w/v Alizarin Red S aqueous solution (pH 4.2) (05600, Fluka Analytical). Cell monolayers in 24-well plates were washed with PBS (10010015, Thermo Fischer), fixed in 10% v/v NBF in PBS (F8775, Sigma-Aldrich) for 45 min at RT, washed with milli-Q water, incubated for 3 min with 300 µL Alizarin Red S solution, washed with milli-Q, and images were acquired using a Axiovert 35 microscope (Zeiss, Carl Zeiss Microscopy GmbH, Jena, Germany) at ×100 magnification. Calcium quantitation was performed after washing cells with PBS and then decalcifying cell monolayers with 0.1 M HCl overnight at 4 °C. Acidic supernatants were centrifuged (10,000 × g, 4 °C, 10 min) and calcium content was assessed using the calcium colorimetric assay.

PK in healthy rats, s.c. = format: in vivo, male Sprague-Dawley rats; conditions: for plasma concentration: unit not given; for MRT: read-out: mean residence time (MRT) (converted)
Adrenergic β1 = target: T1, Adrenergic β1 (Homo sapiens, UniProt P08588); experiment: Off-target 204010; format: binding
T1 construct: purchased Eurofins Panlabs Discovery Services Taiwan, Ltd
T1 sequence (P08588 whole entry): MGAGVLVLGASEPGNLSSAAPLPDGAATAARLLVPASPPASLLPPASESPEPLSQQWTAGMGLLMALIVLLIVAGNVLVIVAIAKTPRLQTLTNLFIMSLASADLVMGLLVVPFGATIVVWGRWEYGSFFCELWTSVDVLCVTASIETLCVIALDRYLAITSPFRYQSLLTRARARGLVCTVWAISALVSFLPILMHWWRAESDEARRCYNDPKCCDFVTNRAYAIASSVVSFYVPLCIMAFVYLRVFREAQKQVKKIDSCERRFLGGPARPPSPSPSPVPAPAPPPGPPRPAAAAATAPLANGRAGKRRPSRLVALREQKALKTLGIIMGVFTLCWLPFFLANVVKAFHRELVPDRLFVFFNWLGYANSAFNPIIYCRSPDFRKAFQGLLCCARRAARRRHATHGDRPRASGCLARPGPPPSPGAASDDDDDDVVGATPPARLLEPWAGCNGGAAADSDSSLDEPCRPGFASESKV
Protocol: (§1) The potential off-target activity of 10 µM (OEG2)2-IP4 was assessed against a panel of 87 enzymes, receptors, or ion channels that are used in standard safety pharmacology screens.
(§2) 3.2. Off-target screening assay
(§3) The experiments were conducted by a contract research organization (Eurofins Panlabs Discovery Services Taiwan, Ltd.) and details on the respective assays can be retrieved via the catalog number provided in Supplementary Table 11 from the company’s webpage
(§4) (https://www.eurofinsdiscoveryservices.com/). […]
(§5) At sacrifice the left tibia of animals of the rat model with dietary adenine/high-phosphate-induced uremia and VC was collected, fixed with 70% v/v EtOH and embedded in methyl methacrylate. The trabecular bone compartment is known to be the most metabolic active i.e. actively re-structured bone compartment in CKD. Therefore, histomorphometric and micro-computed tomography (µCT) analysis of bone was performed on the trabecular compartment. Tibial sections were Goldner-stained for histomorphometric analysis of the proximal metaphysis using the AxioVision Release 4.5 software, as […]
(§6) described previously5. […]

[1] = target: T2, Glutamate, Metabotropic, mGlu5 (Homo sapiens, UniProt P41594); experiment: Off-target 237000; format: binding
T2 construct: purchased Eurofins Panlabs Discovery Services Taiwan, Ltd
T2 sequence (P41594 21-1212): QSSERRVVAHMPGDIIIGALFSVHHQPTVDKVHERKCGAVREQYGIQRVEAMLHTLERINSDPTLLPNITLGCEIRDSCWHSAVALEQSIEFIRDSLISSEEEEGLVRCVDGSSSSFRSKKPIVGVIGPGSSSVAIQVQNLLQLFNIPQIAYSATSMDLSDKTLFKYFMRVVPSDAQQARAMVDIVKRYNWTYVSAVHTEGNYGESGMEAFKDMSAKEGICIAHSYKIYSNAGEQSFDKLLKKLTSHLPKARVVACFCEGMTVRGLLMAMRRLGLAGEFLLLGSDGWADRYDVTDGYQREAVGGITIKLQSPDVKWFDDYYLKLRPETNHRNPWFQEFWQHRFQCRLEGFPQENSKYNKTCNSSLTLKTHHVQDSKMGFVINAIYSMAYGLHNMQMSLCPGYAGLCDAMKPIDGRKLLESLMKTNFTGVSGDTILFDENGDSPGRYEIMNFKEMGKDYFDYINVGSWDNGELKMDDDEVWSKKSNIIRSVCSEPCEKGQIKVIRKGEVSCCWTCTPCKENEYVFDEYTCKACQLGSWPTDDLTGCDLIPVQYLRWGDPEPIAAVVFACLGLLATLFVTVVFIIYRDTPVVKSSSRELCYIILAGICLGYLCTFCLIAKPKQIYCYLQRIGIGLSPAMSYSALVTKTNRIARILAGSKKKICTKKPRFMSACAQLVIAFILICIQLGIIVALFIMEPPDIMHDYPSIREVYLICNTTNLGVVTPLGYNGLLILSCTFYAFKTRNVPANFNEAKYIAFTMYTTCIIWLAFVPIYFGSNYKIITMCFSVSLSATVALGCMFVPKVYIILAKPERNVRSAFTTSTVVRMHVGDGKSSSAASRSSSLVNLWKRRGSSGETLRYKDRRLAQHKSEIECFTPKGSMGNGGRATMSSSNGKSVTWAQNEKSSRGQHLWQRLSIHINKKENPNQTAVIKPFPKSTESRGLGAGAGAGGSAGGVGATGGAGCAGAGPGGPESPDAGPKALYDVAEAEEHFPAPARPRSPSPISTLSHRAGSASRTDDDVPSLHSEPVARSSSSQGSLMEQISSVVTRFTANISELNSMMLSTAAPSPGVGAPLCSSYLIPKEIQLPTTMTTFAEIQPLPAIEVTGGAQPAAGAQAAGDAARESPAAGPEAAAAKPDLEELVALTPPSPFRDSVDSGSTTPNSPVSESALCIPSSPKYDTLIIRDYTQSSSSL
Protocol: as §1, §2, §3, §4, §5, §6

[2] = target: T3, Leukotriene, Cysteinyl CysLT1 (Homo sapiens, UniProt Q9Y271); experiment: Off-target 250460; format: binding
T3 construct: purchased Eurofins Panlabs Discovery Services Taiwan, Ltd
T3 sequence (Q9Y271 whole entry): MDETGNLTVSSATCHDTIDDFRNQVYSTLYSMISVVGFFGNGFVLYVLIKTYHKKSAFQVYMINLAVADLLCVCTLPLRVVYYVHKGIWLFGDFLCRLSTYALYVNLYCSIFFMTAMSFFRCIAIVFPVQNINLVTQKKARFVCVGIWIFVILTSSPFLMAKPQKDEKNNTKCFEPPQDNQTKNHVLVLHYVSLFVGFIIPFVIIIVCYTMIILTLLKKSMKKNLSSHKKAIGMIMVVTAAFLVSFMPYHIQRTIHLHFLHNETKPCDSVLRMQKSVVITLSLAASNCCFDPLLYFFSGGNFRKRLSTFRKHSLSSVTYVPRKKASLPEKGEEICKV
Protocol: as §1, §2
The experiments were conducted by a contract research organization (Eurofins Panlabs Discovery
Services Taiwan, Ltd.) and details on the respective assays can be retrieved via the catalog number
provided in Supplementary Table 11 from the company’s webpage
as §4

Opiate μ (OP3, MOP) = target: T4, Opiate μ (OP3, MOP) (Homo sapiens, UniProt P35372); experiment: Off-target 260410; format: binding
T4 construct: purchased Eurofins Panlabs Discovery Services Taiwan, Ltd
T4 sequence (P35372 whole entry): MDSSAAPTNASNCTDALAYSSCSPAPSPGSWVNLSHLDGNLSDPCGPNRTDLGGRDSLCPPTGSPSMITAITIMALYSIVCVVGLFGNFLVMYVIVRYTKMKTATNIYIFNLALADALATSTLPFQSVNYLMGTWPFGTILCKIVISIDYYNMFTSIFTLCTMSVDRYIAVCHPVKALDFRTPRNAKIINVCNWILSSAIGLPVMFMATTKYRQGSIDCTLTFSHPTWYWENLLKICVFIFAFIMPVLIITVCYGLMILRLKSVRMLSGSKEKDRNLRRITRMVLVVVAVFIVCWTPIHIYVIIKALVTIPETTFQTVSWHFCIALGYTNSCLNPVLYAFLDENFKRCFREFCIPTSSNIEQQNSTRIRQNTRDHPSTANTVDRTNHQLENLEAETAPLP
Protocol: as §1, §2, §3, §4, §5, §6

[3] = Supl.Fig.4 panel b, time 1 (unit not given)
[4] = male, Sprague-Dawley, rat, plasma, sc, 100 mg/kg s.c.
[5] = male, Sprague-Dawley, rat, in vivo, sc, 10 mg/kg s.c.
[6] = male, Sprague-Dawley, rat, in vivo, sc, 50 mg/kg s.c.

## O=P(O)(O)O[C@H]1[C@H](OP(=O)(O)O)[C@@H](OP(=O)(O)O)[C@H](OP(=O)(O)O)[C@@H](OP(=O)(O)O)[C@H]1OP(=O)(O)O [IP6, myo-Inositol hexakisphosphate]
CPPs; [3]
  Dh: 88.6 and 105.8 and 120.4
  PDI: 0.387 and 0.354 and 0.351
CPPs; Supl.Fig.4 panel b, time 3
  Dh: 117.9 and 117.1 and 132.1
  PDI: 0.358 and 0.359
CPPs; Supl.Fig.4 panel b, time 5
  Dh: 120.1 and 126.7 and 139.4
  PDI: 0.352 and 0.371 and 0.353
CPPs; Supl.Fig.4 panel d, time 1
  Dh: 134.2 and 137.5 and 124.1
  PDI: 0.243 and 0.215 and 0.244
CPPs; Supl.Fig.4 panel d, time 3
  PDI: 0.263 and 0.405 and 0.247
CPPs; Supl.Fig.4 panel d, time 5
  Dh: 829.4 and 949 and 968.9
  PDI: 0.375 and 0.401 and 0.371
CPPs; Supl.Fig.4 panel e, time 1
  Dh: 121.9 and 131.6 and 127.5
  PDI: 0.239 and 0.253 and 0.225
CPPs; Supl.Fig.4 panel e, time 3
  Dh: 917.4 and 1163.2 and 967.1
  PDI: 0.279 and 0.365 and 0.211
CPPs; Supl.Fig.4 panel e, time 5
  Dh: 1239.9 and 912.5 and 1030.4
  PDI: 0.335 and 0.413 and 0.307
CPPs; Supl.Fig.4 panel f, time 1
  Dh: 151.1 and 134.7 and 128.6
  PDI: 0.231 and 0.246 and 0.242
CPPs; Supl.Fig.4 panel f, time 3
  Dh: 1215.5 and 1246.8 and 894.9
CPPs; Supl.Fig.4 panel f, time 5
  Dh: 938.5 and 1174.7 and 1102.1
  PDI: 0.341 and 0.349 and 0.237
CPPs; Supl.Fig.4 panel g, time 1
  Dh: 161.6 and 144.6 and 111.2
  PDI: 0.205 and 0.233 and 0.237
CPPs; Supl.Fig.4 panel g, time 3
  PDI: 0.21 and 0.2 and 0.256
CPPs; Supl.Fig.4 panel g, time 5
  PDI: 0.256 and 0.391 and 0.263
CPPs; Supl.Fig.4 panel h, time 1
  Dh: 140.9 and 155.6 and 124.7
  PDI: 0.242 and 0.211 and 0.261
CPPs; Supl.Fig.4 panel h, time 3
  PDI: 0.224 and 0.271 and 0.403
CPPs; Supl.Fig.4 panel h, time 5
  Dh: 698.6 and 1132.6 and 867.3
  PDI: 0.295 and 0.332 and 0.35
CPPs; Supl.Fig.4 panel i, time 1
  Dh: 144.5 and 156.7 and 136.9
  PDI: 0.23 and 0.222 and 0.25
CPPs; Supl.Fig.4 panel i, time 3
  Dh: 161.1 and 174.2 and 140.3
  PDI: 0.256 and 0.273 and 0.247
CPPs; Supl.Fig.4 panel i, time 5
  Dh: 832.1 and 1065.7 and 818.8
  PDI: 0.38 and 0.379 and 0.375
Primary human VSMCs; 0.01 µM, replicates Fig. 3b
  VSMC calcium deposition, % of high-CaP control: 45.78% and 57.03% and 44%
Primary human VSMCs; 1 µM
  VSMC calcium deposition, % of high-CaP control: 43.35% and 32.19% and 33.2%
Primary human VSMCs; 10 µM
  VSMC calcium deposition, % of high-CaP control: 27.4% and 34.12% and 27.96%
Primary human VSMCs; all doses studied (up to 100 µM)
  reduction of VSMC mineralization: 50–70%
PK in healthy rats, s.c.; 10 mg/kg s.c.
  plasma concentrations (below lower limit of quantification): < 0.772 µM
PK in healthy rats, s.c.; 10 mg/kg s.c., LLOQ = 772 nM
  Cmax: < LLOQ
PK in healthy rats, s.c.; 100 mg/kg s.c., 5 min
  plasma concentration: 20.1 and 17.5 and 23.6
PK in healthy rats, s.c.; 100 mg/kg s.c., 0.5 h
  plasma concentration: 13.6 and 19.8 and 10.3
PK in healthy rats, s.c.; [4]
  AUC(0-inf): 22.4 µM·h
  Tmax: 12 min
  half-life: 29 ± 15 min
PK in healthy rats, s.c.; male, Sprague-Dawley, rat, plasma, sc, 100 mg/kg s.c., t = 90 min (Fig. 4d; tlast 360 in Suppl. Table 2)
  AUC(0-t): 19.4 µM·h
PK in healthy rats, s.c.; male, Sprague-Dawley, rat, plasma, sc, 100 mg/kg s.c., read-out: Cmax
  Cmax: 33 ± 10 µM
PK in healthy rats, s.c.; male, Sprague-Dawley, rat, plasma, sc
  MRT: 45 min

## COCCOCCO[C@@H]1[C@@H](OP(=O)(O)O)[C@H](OCCOCCOC)[C@@H](OP(=O)(O)O)[C@@H](OP(=O)(O)O)[C@H]1OP(=O)(O)O [(OEG2)2-IP4, 4,6-Di-O-(methoxy-diethyleneglycol)-myo-inositol-1,2,3,5-tetrakis(phosphate)]
CPPs; added to CPP1s at a final concentration of 30 µM
  CPP particle growth (DLS): stabilized particle growth
Primary human VSMCs; 0.01 µM, replicates Fig. 3b
  VSMC calcium deposition, % of high-CaP control: 129.5% and 91.16% and 131.6%
Primary human VSMCs; 0.1 µM
  reduction in calcification vs untreated high-CaP medium-exposed cells: 54%
  VSMC calcium deposition, % of high-CaP control: 56.69% and 37.74% and 44.37%
Primary human VSMCs; 1 µM
  VSMC calcium deposition, % of high-CaP control: 4.7% and 5.812% and 10.69%
Primary human VSMCs; 10 µM
  VSMC calcium deposition, % of high-CaP control: 4.402% and -0.7134% and 6.025%
Primary human VSMCs; 100 µM
  VSMC calcium deposition, % of high-CaP control: 4.139% and 1.382% and 4.723%
Primary human VSMCs; above 1 µM
  calcium deposition: almost completely abrogated
PK in healthy rats, s.c.; male, Sprague-Dawley, rat, in vivo, sc, 10 mg/kg, 10 mg/kg s.c., t = 360 min
  AUC(0-t): 19.8 µM·h
PK in healthy rats, s.c.; male, Sprague-Dawley, rat, in vivo, sc, 50 mg/kg, 50 mg/kg s.c., tlast 1440 min
  AUC(0-t): 120 µM·h
PK in healthy rats, s.c.; [5]
  AUC(0-inf): 19.9 µM·h
  Tmax: 25 min
PK in healthy rats, s.c.; male, Sprague-Dawley, rat, in vivo, sc, 10 mg/kg s.c., healthy rats
  half-life: 47 ± 1 min
PK in healthy rats, s.c.; male, Sprague-Dawley, rat, in vivo, sc, 10 mg/kg s.c., read-out: Cmax
  Cmax: 12 ± 1 µM
PK in healthy rats, s.c.; [6]
  AUC(0-inf): 122 µM·h
  half-life: 190 ± 66 min
PK in healthy rats, s.c.; male, Sprague-Dawley, rat, in vivo, sc, 50 mg/kg s.c., read-out: Cmax
  Cmax: 71 ± 26 µM
PK in healthy rats, s.c.; male, Sprague-Dawley, rat, in vivo, sc
  MRT: 78 min
Adrenergic β1
  inhibition at 10 µM: 2%
[1]
  inhibition at 10 µM: 24%
[2]
  inhibition at 10 µM: 0%
Opiate μ (OP3, MOP)
  inhibition at 10 µM: 11%
